Nine molecules from US11571459B2, “Methods for treating cancer using PS-targeting antibodies with immuno-oncology agents” (ONCXERNA THERAPEUTICS, INC., priority 2017, dated 2023) can be followed below.

A word on the Cmax: it is the peak of the concentration-time curve.

In one data set the test system is PS. In words: ELISA binding to PS-coated plates. To be noted: phospholipid-coated ELISA plates. As to the method: The 3G4 antibody was produced by immunizing mice with autologous, PS-positive endothelial cells, as reported in Ran et al., 2005. The 3G4 antibody was tested for binding to PS in a standard ELISA in the presence and absence of serum, and was initially characterized as being “serum-independent”, i.e., an antibody that binds to PS in the absence of serum.
In a follow-on study, the binding of the 2aG4 antibody to PS was tested in an ELISA in the presence of varying concentrations of human β2GPI.
These included binding to PS in ELISAs, FACS analyses using PS-positive cells and functional assays in the form of an NFAT surrogate ADCC bioassay (Larson et al., 2013).
(In an ELISA, binding on a coated surface is turned into a signal by an enzyme label.)

For data set [1], the system named is previously-treated Stage IIIb/IV non-squamous NSCLC. Kind of data set: Phase III trial of bavituximab plus docetaxel in NSCLC.
Source text: This global, double-blind Phase III trial was initiated in 2012. Selection criteria were for patients with Stage IIIb/IV non-squamous NSCLC who progressed on platinum-doublet chemotherapy (should have progressed on appropriate targeted therapy if known EGFR or ALK mutation), with ECOG PS 0-1 and prior immunotherapy allowed (ECOG is the performance status scale defined by the Eastern Cooperative Oncology Group). […] The primary endpoint was overall survival (OS) and secondary endpoints included objective response rate (Independent Central Review, ICR), progression-free survival (ICR), safety, PK, Quality of Life (LCSS) and exploratory biomarkers, including immune correlates.
OS was analyzed by VeriStrat subgroups using Kaplan-Meier statistical methods.
A single cutoff method was first used to assess the patient β2GPI data.
The initial analyses described above prompted further, extensive analyses of the data in 592 evaluable patients. These analyses used a two cutoff method (Klein & Moeschberger, 2003).
Archival tissue obtained at the time of diagnosis was requested, but not required, in the Phase III trial of Example X. Formalin-fixed paraffin-embedded (FFPE) slides were stained with antibodies for a panel of lymphoid (or tumor) cell markers, as described in Feng et al., 2015: CD3+, CD8+, FoxP3+, PD-L1+, CD163+ and CK+ (cytokeratin, an epithelial carcinoma marker) using a mutliplex (6-plex) quantitative immunohistochemistry (IHC) assay (OPAL®, PerkinElmer, Waltham, Mass., USA) and using DAPI. The PD-L1 antibody used was the rabbit anti-PD-L1 antibody termed E1L3N® XP® (Cell Signaling Technology, (CST), Danvers, Mass., Catalogue #13684; Mahoney et al., 2015). Baseline PD-L1 expression was retrospectively scored on tumor cells (TC, i.e., CK+) and PD-L1 expressing tumor cells were classified according to their percentage within the total number of tumor cells using established assays and classifications (Fehrenbacher et al., 2016), as follows: TC3≥50%; TC2≥5% and ≤50%; TC1≥1% and <5%; and TC0<1%. Cox regression models for PD-L1 IHC subgroup populations were used for correlation with OS.
Kaplan-Meier statistical methods and Cox proportional hazard models were utilized to evaluate and contrast the correlation of peripheral (and intratumoral) IFNγ levels with OS based on a data cut from the Phase III trial (Example X) dated Feb.
The test system of data set [2] is previously treated non-squamous NSCLC. The note with it: in vivo. As to the method: The primary objective of this study was to compare the ORR (CR+PR) among the treatment arms. Secondary objectives included comparing PFS, DR, OS, safety and PK.
Additional blood draws were performed for these patients during Cycles 1 and 2 at specified time points.
Samples from the NSCLC Phase II trial of Example IX (PPHM 0902) were tested using the functional β2GPI assay of Example XII.

Data set [3] relates to previously untreated stage IV pancreatic cancer. In words: Phase II (PPHM 1002) gemcitabine with or without bavituximab. In kind it is in vivo, human. The note with it: for median overall survival: at study closure. As to the method:
The primary objective was to compare the OS of patients among the treatment arms. Secondary objectives included comparing PFS, ORR, DR and safety.
Gemcitabine (1000 mg/m^2) was given on days 1, 8, and 15 of each 28-day cycle (4 weeks) until disease progression or unacceptable toxicities. A total of 70 patients were enrolled to the study. In general, the patient population had very extensive disease burden, which may have reduced the response in both arms.
The levels of pre-treatment functional β2GPI ranged from 82.5 to 343.2 μg/ml for all patients. For these 31 patients, the mean level of pre-treatment functional β2GPI (219.2 μg/ml) was consistent with the average reported in the literature.

Data set [4] is described as follows: Phase I dose escalation study of bavituximab monotherapy in refractory advanced solid tumors: PK, safety.
Procedure: Samples were collected from patients in the 0.1 and 0.3 mg/kg dose cohorts before the study, on days 0, 1, 2, 4, 7, 10, 14, and every 7 days from days 21 to 70. Samples were collected from patients in the 1 and 3 mg/kg dose cohorts before the study, on days 0, 1, 2, 4, 7, 14, 21, 22, 23, 25, and every 7 days from days 28 to 56.
Another data set has as its target T1, functional β2GPI (Homo sapiens, UniProt P02749).
T1 construct: Samples of β2GPI purified from human plasma and recombinant human β2GPI were both treated with plasmin; from tissue; host or cells: human plasma / serum
T1 sequence (P02749 20-345): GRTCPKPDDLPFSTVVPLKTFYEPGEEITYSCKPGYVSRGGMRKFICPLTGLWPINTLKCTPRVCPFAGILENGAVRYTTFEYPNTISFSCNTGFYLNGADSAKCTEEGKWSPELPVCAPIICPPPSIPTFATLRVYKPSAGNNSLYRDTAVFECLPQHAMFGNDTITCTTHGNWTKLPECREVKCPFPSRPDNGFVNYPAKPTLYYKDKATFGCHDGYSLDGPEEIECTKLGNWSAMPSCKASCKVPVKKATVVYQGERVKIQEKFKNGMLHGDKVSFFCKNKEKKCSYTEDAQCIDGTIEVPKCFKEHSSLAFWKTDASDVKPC
Kind of data set: Functional β2GPI assay (PS-coated plate, bavituximab-HRP). In kind it is binding. The note with it: for concentration read out in functional β2GPI assay: recombinant or plasma-derived β2GPI; for Conc. (ng/mL) read out in Functional β2GPI Assay: PS-coated plate, bavituximab-HRP, nicked vs intact β2GPI samples. The source says: The following particular materials and equipment were used in the assay to generate the Results presented in this example under Sections B1 and B2. Materials: 96-well medium binding flat bottom plates (Greiner BioOne, cat #655001); 96-well non-binding round bottom plates (Costar, cat #3605); hexane (Sigma, cat #32293); PS antigen (Sigma, cat #P6641); ovalbumin (Sigma, cat #A5503); chromogenic substrate, tetramethylbenzidine (TMB), (KPL, cat #50-76-00); 2M H2SO4 (Fisher, Cat #SA818-4); plate covers (Fisher 015-027-11); adhesive plate sealer (VWR 232701); reagent reservoirs (VistaLab Cat #3054-1000). 1.5 mL microcentrifuge tubes, 50 mL conical tubes and 15 mL conical tubes were also utilized.
The Wash Buffer is IX phosphate-buffered saline (PBS) and the Blocking Buffer is 2% Ovalbumin in IX PBS.
The bavituximab antibody was conjugated to horseradish peroxidase (HRP) to prepare a bavituximab-HRP detection agent for use in the assay. The conjugation was performed using EZ-Link® Plus Activated Peroxidase (Thermo Scientific, Cat #31487) following the procedure for conjugating activated peroxidase to an antibody at pH 7.2 provided by the manufacturer. […] This was added to 1 mg of lyophilized EZ-Link Plus activated peroxidase to reconstitute. Immediately following reconstitution, 10 μL of 5M sodium cyanoborohydride solution was added to the reaction and incubated for 1 hour at room temperature. Once incubation was completed, 20 μL of quenching buffer was added and incubated for 15 minutes at room temperature. Conjugated bavituximab-HRP (1 mg/mL) was stored at 4° C. for up to 4 weeks.
The ELISA plates were coated with the PS antigen as follows: 5 μg/mL PS antigen was prepared and diluted into 6 mL of hexane in a fume hood with the blower off. 50 μL of PS solution was added to each well using a 12-channel pipette. The fume hood blower was turned back on and the hexane allowed to evaporate for 30-45 minutes, typically 30 minutes.
The PS-coated ELISA plates were blocked as follows: 100 mL per plate of the Blocking Buffer (2% Ovalbumin in IX PBS) was prepared. 200 μL of Blocking Buffer was added to each well using a 12-channel pipette.
The β2GPI standards for the positive control were obtained from Haematologic Technologies, Inc. (HTI; cat #B2G1-0001-C; 1.0 mg/ml) in a buffer of 0.2 M Glycine, 0.15 M NaCl, pH 7.4. […]

[5] abbreviates: 70% of targeted OS events reached.
Where [6] appears, read: about 85% of targeted OS events.

Consider “2aG4: mouse IgG2a chimeric version of the 3G4 antibody”, for which the “binding to phospholipids in standard ELISA” value in the data set with PS was “essentially the same affinity and binding profile as the 3G4 antibody”.

As to `CC(=O)O[C@@]12CO[C@@H]1C[C@H](O)[C@@]1(C)C(=O)[C@H](O)C3=C(C)[C@@H](OC(=O)[C@H](O)[C@@H](NC(=O)OC(C)(C)C)c4ccccc4)C[C@@](O)([C@@H](OC(=O)c4ccccc4)[C@H]21)C3(C)C` [docetaxel, reference compound], the “median OS” value in data set [1] (12 months follow-up, about 85% of targeted OS events) stood at 10.9 months. Also, the mOS in data set [1] (setting [5]) is 10.8 months; in data set [1] (IFNγ high, no subsequent IO) it was 9.2 months; in data set [1] (IFNγ high, received subsequent IO) it was 13.5 months; in data set [1] (IFNγ low, no subsequent IO) it was 10.8 months; in data set [1] (IFNγ low, received subsequent IO), 12.1 months; in data set [1] (VS Good patients (VeriStrat)), 11.8 months. Further, the mOS in data set [1] (VS Poor patients (VeriStrat)) was determined as 4.7 months; in data set [1] (functional β2GPI 200-240 μg/mL), 7.7 months; in data set [1] (functional β2GPI ≥200 μg/mL, 578 evaluable patients) it was 9.4 months; in data set [1] (functional β2GPI ≥200 μg/mL, 592 evaluable patients) it was 10.1 months; in data set [1] (functional β2GPI ≥200 μg/mL, with subsequent IO), 12.3 months; in data set [1] (functional β2GPI ≥200 μg/mL, without subsequent IO) it was 9.2 months. The mOS in data set [1] (higher PD-L1 expression (TC1/2/3, ≥1%)) is 10.4 months; in data set [1] (negative PD-L1 expression (TC0, <1%)), 11.1 months; in data set [1] (patients receiving subsequent IO), 12.6 months; in data set [1] (patients who did not receive subsequent IO), 10.2 months; in data set [1] (pre-treatment serum IFNγ high (≥ median 0.093 μg/mL)), 10.6 months; in data set [1] (pre-treatment serum IFNγ low (< median 0.093 μg/mL)) it was 11.1 months. Further, the mOS in data set [1] (β2GPI less than 200 μg/mL, with subsequent IO) stood at 18.6 months; in data set [1] (β2GPI less than 200 μg/mL, without subsequent IO) it was 11.6 months. Also, the “median PFS” value in data set [1] (setting [5]) is given as 3.9 months. Besides, in data set [1] (setting [6]), the “Grade 3 or higher adverse events” value was determined as 60%. Moreover, the ORR in data set [1] (setting [6]) was 11%. Further, the PFS in data set [1] (setting [6]) came to 4.1 months. Besides, the “HR, PD-L1 TC0 versus TC1/2/3 within arm” value in data set [1] (in vivo) is listed as 0.93. The pharmacokinetic drug-drug interaction result in data set [2] was “exhibited similar pharmacokinetic characteristics with or without the administration of bavituximab”.

`Nc1ccn([C@@H]2O[C@H](CO)[C@@H](O)C2(F)F)c(=O)n1` [gemcitabine, reference compound]: in data set [3], the median overall survival is reported as 5.2 months.

As to Bavi, in data set [4] (Cmax at 3 mg/kg expressed as molar concentration), the “Bavi” value came to 0.389 µM. Further, in data set [4] (bavituximab 3 mg/kg, maximum concentration in blood (Example II; Gerber et al., 2011)), the maximum concentration (Cmax) came to 56.4 µg/mL.

In the case of “bavituximab plus gemcitabine: treatment arm: gemcitabine with weekly 3 mg/kg bavituximab”, the median overall survival in data set [3] is 5.6 months. For the same molecule, in data set [3] (in vivo), the TEAE anemia is given as 35.3%; the “TEAE fatigue, constipation and anorexia (each)” value is given as 32.4%; the TEAE nausea worked out at 44.1%; the “response rate and survival probability at 1 year compared with gemcitabine only” value is “numerically higher response rate and survival probability at 1 year”.

B1: β2GPI: plasmin-free (intact) β2GPI purified from human plasma or recombinant (protein)
chain: T1 sequence (P02749 20-345)
For the molecule B1, in the data set with functional β2GPI, the “concentration read out in functional β2GPI assay” value was around 136 ng/mL.

B2: plasmin-treated β2GPI: β2GPI treated with plasmin, majority nicked, does not bind PS (protein)
chain: T1 sequence (P02749 20-345)
On to B2, for which, in the data set with functional β2GPI, the “concentration read out in functional β2GPI assay” value came out at 33 ng/mL.

B3: Recombinant Plasmin-free β2GPI (protein, UniProt P02749 20-345, looked up)
Beta-2-glycoprotein 1: T1 sequence (P02749 20-345)
modifications: recombinant, plasmin-free
As to B3, in the data set with functional β2GPI, the “Conc. (ng/mL) read out in Functional β2GPI Assay” value came to 136.42 ng/mL.

B4: Human Plasmin-free β2GPI (protein, UniProt P02749 20-345, looked up)
Beta-2-glycoprotein 1: T1 sequence (P02749 20-345)
modifications: plasmin-free
With B4, in the data set with functional β2GPI, the “Conc. (ng/mL) read out in Functional β2GPI Assay” value worked out at 136.42 ng/mL.
